In brackets after ≈: the same amount, converted by molar mass. Where a SMILES comes first, the peptide text is derived from it. [ ]: non-standard residue; d: D form. The star is where a group is joined. Tridecanoyl(3R-OH,11-Me) = CCC(C)CCCCCCC[C@@H](O)CC(=O)*
Columns and labels:
Staphylococcus aureus [1] = assay: Antibacterial activity against Staphylococcus aureus ATCC 29213; format: functional
Bacillus subtilis [2] = assay: Antibacterial activity against Bacillus subtilis SCSIO BS01; format: functional
Bacillus thuringiensis = assay: Antibacterial activity against Bacillus thuringiensis SCSIO BT01; format: functional
Staphylococcus aureus [3] = assay: Antibacterial activity against methicillin-resistant Staphylococcus aureus; format: functional
Enterococcus faecalis = assay: Antibacterial activity against Enterococcus faecalis ATCC 29212; format: functional
Bacillus subtilis [4] = assay: Antibacterial activity against Bacillus subtilis by serial dilution assay; format: functional
Micrococcus luteus = assay: Antibacterial activity against Micrococcus luteus by serial dilution assay; format: functional
Escherichia coli [5] = assay: Antibacterial activity against Escherichia coli by serial dilution assay; format: functional
Proteus vulgaris = assay: Antibacterial activity against Proteus vulgaris by serial dilution assay; format: functional
Bacillus subtilis [6] = assay: Antibacterial activity against Bacillus subtilis by broth dilution assay; format: functional
Escherichia coli [7] = assay: Antibacterial activity against Escherichia coli by broth dilution assay; format: functional
Staphylococcus aureus [8] = assay: Antibacterial activity against Staphylococcus aureus by broth dilution assay; format: functional
Pseudomonas aeruginosa = assay: Antibacterial activity against Pseudomonas aeruginosa by broth dilution assay; format: functional
Salmonella typhi = assay: Antibacterial activity against Salmonella typhi by broth dilution assay; format: functional, Salmonella enterica subsp. enterica serovar Typhi; conditions: Salmonella enterica
Staphylococcus aureus [9] = assay: Antibacterial activity against Staphylococcus aureus incubated for 18 hrs; format: functional

## CC1(C)OC2=C(C[C@H]1Cl)C(=O)c1c(O)cc(O)cc1C2=O
Staphylococcus aureus [1]
  MIC: 4 to 32 µg/mL (≈ 13 to 104 µM)
Bacillus subtilis [2]
  MIC: 4 to 32 µg/mL (≈ 13 to 104 µM)
Bacillus thuringiensis
  MIC: 4 to 32 µg/mL (≈ 13 to 104 µM)

## CC(=O)[C@H]1[C@@H]2C=C[C@@H]3[C@H]4C/C=C\C(=O)NCCC[C@H]5C(O)=C(C(=O)/C=C/[C@@H]4C[C@@H]3[C@H]2C[C@H]1C)C(=O)N5C
Staphylococcus aureus [3]
  MIC: 32 to 64 µg/mL (≈ 63.2 to 126 µM)

## CC(C)=CCC/C(C)=C/C[C@@]12OC(C)(C)[C@H](Cl)C=C1C(=O)c1c(O)cc(O)cc1C2=O
Staphylococcus aureus [1]
  MIC: 4 to 32 µg/mL (≈ 8.99 to 71.9 µM)
Bacillus subtilis [2]
  MIC: 4 to 32 µg/mL (≈ 8.99 to 71.9 µM)
Bacillus thuringiensis
  MIC: 4 to 32 µg/mL (≈ 8.99 to 71.9 µM)

## CC[C@]1(O)C[C@@]2(O)c3c(c(C)cc(=O)n3C)C(=O)c3c(C)cc(=O)n1c32
Staphylococcus aureus [1]
  MIC: 1 to 4 µg/mL (≈ 2.81 to 11.2 µM)
Bacillus thuringiensis
  MIC: 1 to 4 µg/mL (≈ 2.81 to 11.2 µM)
Enterococcus faecalis
  MIC: 1 to 4 µg/mL (≈ 2.81 to 11.2 µM)

## C=C1CC[C@H](Cl)C(C)(C)[C@@H]1C[C@@]12OC(C)(C)[C@H](Cl)C[C@]1(Cl)C(=O)c1c(O)cc(O)cc1C2=O
Staphylococcus aureus [1]
  MIC: ≤ 2 µg/mL
Bacillus subtilis [2]
  MIC: ≤ 2 µg/mL
Bacillus thuringiensis
  MIC: ≤ 2 µg/mL

## O=C1N/C(=N\O)C(c2ccc(O)c([N+](=O)[O-])c2)=C1c1ccccc1
Bacillus subtilis [4]
  MIC: 3 to 25 µg/mL (≈ 9.22 to 76.9 µM)
Micrococcus luteus
  MIC: 3 to 25 µg/mL (≈ 9.22 to 76.9 µM)
Escherichia coli [5]
  MIC: 3 to 25 µg/mL (≈ 9.22 to 76.9 µM)
Proteus vulgaris
  MIC: 3 to 25 µg/mL (≈ 9.22 to 76.9 µM)

## C[C@@H](O)CCC/C=C/C=C/[C@H](O)C[C@@H](O)C/C=C\C=C\[C@@H](O)C/C=C/C=C\C(=O)O
Bacillus subtilis [6]
  MIC: 8 µg/mL (≈ 19 µM)
Escherichia coli [7]
  MIC: 8 µg/mL (≈ 19 µM)

## O=C1N/C(=N\O)C(c2ccc(O)c([N+](=O)[O-])c2)=C1c1ccc(O)c([N+](=O)[O-])c1
Bacillus subtilis [4]
  MIC: 3 to 25 µg/mL (≈ 7.77 to 64.7 µM)
Micrococcus luteus
  MIC: 3 to 25 µg/mL (≈ 7.77 to 64.7 µM)
Escherichia coli [5]
  MIC: 3 to 25 µg/mL (≈ 7.77 to 64.7 µM)
Proteus vulgaris
  MIC: 3 to 25 µg/mL (≈ 7.77 to 64.7 µM)

## CCC(C)CCCCCCC[C@@H](O)CC(=O)N[C@@H](CCC(=O)O)C(=O)N[C@@H](CC(C)C)C(=O)N[C@@H](CC(C)C)C(=O)N[C@@H](C(=O)N[C@@H](CC(=O)O)C(=O)N[C@@H](CC(C)C)C(=O)N[C@@H](CC(C)C)C(=O)O)C(C)C (stereo partly drawn) ({Tridecanoyl(3R-OH,11-Me)}-ELL[dV]DLL-OH)
Staphylococcus aureus [8]
  MIC: 16 µg/mL (≈ 15.4 µM)
Bacillus subtilis [6]
  MIC: 16 µg/mL (≈ 15.4 µM)
Pseudomonas aeruginosa
  MIC: 16 µg/mL (≈ 15.4 µM)
Salmonella typhi
  MIC: 16 µg/mL (≈ 15.4 µM)

## CC[C@H]1[C@@H]2C=C[C@@H]3[C@H]4C/C=C\C(=O)NCCC[C@@H]5NC(=O)C(=C5O)C(=O)/C=C/[C@@H]4C[C@@H]3[C@H]2C[C@H]1C
Staphylococcus aureus [3]
  MIC: 1 to 4 µg/mL (≈ 2.09 to 8.36 µM)

## CC(C)=CCC/C(C)=C/C[C@@]12OC(C)(C)[C@H](Cl)C[C@]1(Cl)C(=O)c1c(O)cc(O)cc1C2=O
Staphylococcus aureus [1]
  MIC: ≤ 2 µg/mL
Bacillus subtilis [2]
  MIC: ≤ 2 µg/mL
Bacillus thuringiensis
  MIC: ≤ 2 µg/mL

## COC(=O)[C@@]1(C)O[C@@H](C)[C@H](/C=C/C=C/C=C/C(=O)O[C@H]2CC[C@H](c3ccc4c(c3O)C(=O)C3=C(C4=O)[C@@]4(O)C(=O)[C@H](O)[C@](C)(O)C[C@@]4(O)C=C3)O[C@@H]2C)O1
Staphylococcus aureus [9]
  MIC: 2 to 6 µg/mL (≈ 2.66 to 7.99 µM)

## C[C@@H]1CCC/C=C/C=C/[C@H](O)C[C@@H](O)C[C@@H]2O[C@@H]2/C=C/[C@@H](O)C/C=C/C=C\C(=O)O1 [GAGEOMACROLACTIN 1]
Staphylococcus aureus [8]
  MIC: 0.01 µg/mL (≈ 0.0239 µM)
Bacillus subtilis [6]
  MIC: 0.01 µg/mL (≈ 0.0239 µM)
Escherichia coli [7]
  MIC: 0.02 µg/mL (≈ 0.0478 µM)
Pseudomonas aeruginosa
  MIC: 0.01 µg/mL (≈ 0.0239 µM)
Salmonella typhi
  MIC: 0.02 µg/mL (≈ 0.0478 µM)

## COC(=O)C[C@H](O)C[C@@H](O)C[C@H](O)/C=C/C=C/CCC[C@@H](C)O
Bacillus subtilis [6]
  MIC: ≥ 16 µg/mL
Escherichia coli [7]
  MIC: ≥ 16 µg/mL

## CCC(C)CCCCCCC[C@@H](O)CC(=O)N[C@@H](CCC(=O)OC)C(=O)N[C@@H](CC(C)C)C(=O)N[C@@H](CC(C)C)C(=O)N[C@@H](CC(C)C)C(=O)O (stereo partly drawn) ({Tridecanoyl(3R-OH,11-Me)}-E(OMe)LLL-OH)
Staphylococcus aureus [8]
  MIC: 0.03 µg/mL (≈ 0.0413 µM)
Bacillus subtilis [6]
  MIC: 0.01 µg/mL (≈ 0.0138 µM)
Pseudomonas aeruginosa
  MIC: 0.03 µg/mL (≈ 0.0413 µM)
Salmonella typhi
  MIC: 0.01 µg/mL (≈ 0.0138 µM)

## CC(C)=CCC/C(C)=C/C[C@]1(O)C(=O)c2cc(O)cc(O)c2C(=O)[C@@]1(Cl)CC=C(C)C
Staphylococcus aureus [1]
  MIC: ≤ 2 µg/mL
Bacillus subtilis [2]
  MIC: ≤ 2 µg/mL
Bacillus thuringiensis
  MIC: ≤ 2 µg/mL

## C/C(C=O)=C/CC/C(C)=C/C[C@@]12OC(C)(C)[C@H](Cl)C[C@]1(Cl)C(=O)c1c(O)cc(O)cc1C2=O
Staphylococcus aureus [1]
  MIC: 4 to 32 µg/mL (≈ 8.07 to 64.6 µM)
Bacillus subtilis [2]
  MIC: 4 to 32 µg/mL (≈ 8.07 to 64.6 µM)
Bacillus thuringiensis
  MIC: 4 to 32 µg/mL (≈ 8.07 to 64.6 µM)

## O=C1NC(=O)C(c2c[nH]c3ccccc23)=C1c1ccc(O)c([N+](=O)[O-])c1
Bacillus subtilis [4]
  MIC: 3 to 25 µg/mL (≈ 8.59 to 71.6 µM)
Micrococcus luteus
  MIC: 3 to 25 µg/mL (≈ 8.59 to 71.6 µM)
Escherichia coli [5]
  MIC: 3 to 25 µg/mL (≈ 8.59 to 71.6 µM)
Proteus vulgaris
  MIC: 3 to 25 µg/mL (≈ 8.59 to 71.6 µM)

## C[C@@H]1CCCCC/C=C/[C@H](O)C[C@@H](O)C/C=C\C=C\[C@@H](O[C@@H]2O[C@H](CO)[C@@H](O)[C@H](O)[C@H]2O)C/C=C/C=C\C(=O)O1
Staphylococcus aureus [8]
  MIC: 0.06 µg/mL (≈ 0.106 µM)
Bacillus subtilis [6]
  MIC: 0.06 µg/mL (≈ 0.106 µM)
Escherichia coli [7]
  MIC: 0.06 µg/mL (≈ 0.106 µM)
Pseudomonas aeruginosa
  MIC: 0.03 µg/mL (≈ 0.0529 µM)
Salmonella typhi
  MIC: 0.03 µg/mL (≈ 0.0529 µM)

## Cc1cc(=O)n(C)c2c1C(=O)c1c(C)cc(=O)n3c1[C@@]2(O)C[C@]3(C)O
Staphylococcus aureus [1]
  MIC: 1 to 4 µg/mL (≈ 2.92 to 11.7 µM)
Bacillus thuringiensis
  MIC: 1 to 4 µg/mL (≈ 2.92 to 11.7 µM)
Enterococcus faecalis
  MIC: 1 to 4 µg/mL (≈ 2.92 to 11.7 µM)

## O=C1NC(=O)C(c2ccc(O)c([N+](=O)[O-])c2)=C1c1ccc(O)cc1
Bacillus subtilis [4]
  MIC: 25 to 100 µg/mL (≈ 76.6 to 307 µM)
Micrococcus luteus
  MIC: 25 to 100 µg/mL (≈ 76.6 to 307 µM)
Escherichia coli [5]
  MIC: 25 to 100 µg/mL (≈ 76.6 to 307 µM)
Proteus vulgaris
  MIC: 25 to 100 µg/mL (≈ 76.6 to 307 µM)

## Cc1cc(=O)[nH]c2c1C(=O)c1c(C)cc(=O)n(C)c1C2=O
Staphylococcus aureus [1]
  MIC: 1 to 4 µg/mL (≈ 3.52 to 14.1 µM)
Bacillus thuringiensis
  MIC: 1 to 4 µg/mL (≈ 3.52 to 14.1 µM)
Enterococcus faecalis
  MIC: 1 to 4 µg/mL (≈ 3.52 to 14.1 µM)

## CC[C@H]1[C@@H]2C=C[C@@H]3[C@H]4/C=C/CC(=O)NCCC[C@H]5C(O)=C(C(=O)/C=C/[C@@H]4C[C@@H]3[C@H]2C[C@H]1C)C(=O)N5C
Staphylococcus aureus [3]
  MIC: 1 to 4 µg/mL (≈ 2.03 to 8.12 µM)

## COC(=O)N[C@H]1[C@@H](C)O[C@@H](O[C@H]2C/C=C(\C)[C@@H]3C=C[C@@H]4[C@@H](O[C@H]5C[C@@H](O[C@H]6C[C@@H](O)[C@@H](O)[C@H](C)O6)[C@@H](O)[C@H](C)O5)[C@@H](C)C[C@H](C)[C@H]4[C@]3(C)C(=O)C3=C(O)[C@@]4(C[C@@H](C)C(C)=C[C@H]4/C=C/2C)OC3=O)C[C@]1(C)[N+](=O)[O-]
Staphylococcus aureus [1]
  MIC: 6.2 to 50 µg/mL (≈ 6.04 to 48.7 µM)
